Assay: Solubility of additive in water
Format: physicochemical
Conditions: 100 ml of pure water at 25° C.
Experimental: The amount of the additive dissolving in 100 ml of pure water at 25° C. was measured and evaluated according to the following criteria.
For `O=C1C(Cc2ccccc2S(=O)(=O)[O-])C(=O)N(c2ccccc2)N1c1ccccc1.[Na+]` [3-6], the Solubility in water was “A+ (The amount of the additive dissolving in 100 ml of pure water was equal to or greater than 5 g.)”.
For `O=CC1C(=O)N(c2ccccc2)N(c2ccc(S(=O)(=O)[O-])cc2)C1=O.[Na+]` (stereo not drawn) [5-5], the Solubility in water was “A+ (The amount of the additive dissolving in 100 ml of pure water was equal to or greater than 5 g.)”.
With `[Cl-].[Cl-].[Zn+2]` [ZnCl2, reference compound] the Solubility in water was “A+ (The amount of the additive dissolving in 100 ml of pure water was equal to or greater than 5 g.)”.
For `Nc1c(F)c(F)c(C(=O)O)c(F)c1F` [Organic acid 2, reference compound], the Solubility in water was “A (The amount of the additive dissolving in 100 ml of pure water was equal to or greater than 3 g and less than 5 g.)”.
For `CN1C(=O)C(Cc2ccccc2S(=O)(=O)[O-])C(=O)c2ccccc21.[Na+]` (stereo not drawn) [3-7], the Solubility in water was “A+ (The amount of the additive dissolving in 100 ml of pure water was equal to or greater than 5 g.)”.
With `O=C1C(Cc2ccc(S(=O)(=O)[O-])cc2S(=O)(=O)O)C(=O)N2CCCCN12.[Na+]` [3-9] the Solubility in water was “A+ (The amount of the additive dissolving in 100 ml of pure water was equal to or greater than 5 g.)”.
In the case of `O=C1CN(c2ccccc2)C(=O)C1Cc1ccccc1S(=O)(=O)O` (stereo not drawn) [3-10], the Solubility in water is reported as “A+ (The amount of the additive dissolving in 100 ml of pure water was equal to or greater than 5 g.)”.
In the case of `CC(=O)C(Cc1ccccc1S(=O)(=O)[O-])C(=O)c1ccccc1.[Na+]` (stereo not drawn) [3-2], the Solubility in water is reported as “A+ (The amount of the additive dissolving in 100 ml of pure water was equal to or greater than 5 g.)”.
For `O=C1NNC(=O)C1c1ccccc1` [2-1], the Solubility in water was “A (The amount of the additive dissolving in 100 ml of pure water was equal to or greater than 3 g and less than 5 g.)”.
For `O=Cc1ccc(CC2C(=O)N(c3ccccc3)N(c3ccc(S(=O)(=O)[O-])cc3)C2=O)cc1.[Na+]` (stereo not drawn) [5-1], the Solubility in water was “A+ (The amount of the additive dissolving in 100 ml of pure water was equal to or greater than 5 g.)”.
In the case of `O=C1NC(=O)N(Cc2ccccc2)C(=O)C1c1ccccc1` (stereo not drawn) [Organic acid 1, reference compound], the Solubility in water is reported as “C (The amount of the additive dissolving in 100 ml of pure water was less than 1 g.)”.
With `CC1(C)CC(=O)C(Cc2ccccc2S(=O)(=O)O)C(=O)C1` [3-3] the Solubility in water was “A+ (The amount of the additive dissolving in 100 ml of pure water was equal to or greater than 5 g.)”.
For `O=C1Nc2ccccc2NC(=O)C1Cc1ccc(S(=O)(=O)[O-])cc1S(=O)(=O)O.[Na+]` [3-8], the Solubility in water was “A+ (The amount of the additive dissolving in 100 ml of pure water was equal to or greater than 5 g.)”.
In the case of `CC(C)C1C(=O)NNC1=O` [2-3], the Solubility in water is reported as “A (The amount of the additive dissolving in 100 ml of pure water was equal to or greater than 3 g and less than 5 g.)”.
With `O=C1c2ccccc2C(=O)C1Cc1ccccc1S(=O)(=O)O` [3-4] the Solubility in water was “A+ (The amount of the additive dissolving in 100 ml of pure water was equal to or greater than 5 g.)”.
